Data on 6 compounds can be found in patent US20230233515A1, “PHOTODYNAMIC ANTI-GRAM-POSITIVE BACTERIAL ACTIVITY OF PHARMACEUTICAL-GRADE ROSE BENGAL” (priority 2021, published 2023).

In brackets after ≈: the same amount, converted by molar mass. Where two headings read alike, the source gives them in different places.

Assay [1] deals with M.smegmatis 607™ (wild-type). Nature of the assay: MIC against M.smegmatis, dark. Format: cell-based, Mycobacterium smegmatis. Particulars: dark condition, triplicate.
The test system of assay [2] is M.smegmatis 607™ (RB mutant). Format: cell-based, Mycobacterium smegmatis. The note with it: for MIC (µg/mL) against M.smegmatis 607™ (RB mutant): triplicate.
For assay [3], the system named is biofilms of S.aureus 6508. The assay is described as follows: Anti-biofilm assay. It is filed as cell-based, Staphylococcus aureus. Particulars: linezolid at 600 µg/mL, compared with RB 30.0 µg/mL. The method, then:
We applied linezolid as a positive control at very high concentration of 600 µg/mL (>100xMIC for the planktonic cells) in our biofilm assays.
The biofilms were generated on 12-well plates by incubating each bacterium for five days. The planktonic bacteria in the culture media were gently removed, and fresh media were placed. […] An aliquot of each culture was diluted (x10,000 or x100,000) on agar plates at 37° C. for 24 h. CFU/mL was counted.

Regarding `NC[C@H]1O[C@@H](O[C@H]([C@H]2O[C@@H](n3ccc(=O)[nH]c3=O)[C@H](O)[C@@H]2O)[C@H](NCCCC(=O)NCc2ccc(N3CCC(Oc4ccc(OC(F)(F)F)cc4)CC3)cc2)C(N)=O)[C@H](O)[C@@H]1O` [APPB, aminouridyl phenoxypiperidinylbenzyl butanamide], in assay [1], the “MIC (µg/mL) against M.smegmatis 607™ (wild-type)” value was 0.20 µg/mL (≈ 0.227 µM). In assay [2] (dark condition), the “susceptibility of the RB-resistant strain to the drug” value (from here on “susceptibility”) is on record as “susceptible” and the “MIC (µg/mL) against M.smegmatis 607™ (RB mutant)” value is listed as 0.20 µg/mL (≈ 0.227 µM).

A word on the MIC: it is the least concentration at which growth counts as inhibited. Lower therefore signals greater potency. `NCC[C@H](O)C(=O)N[C@@H]1C[C@H](N)[C@@H](O[C@H]2O[C@H](CN)[C@@H](O)[C@H](O)[C@H]2O)[C@H](O)[C@H]1O[C@H]1O[C@H](CO)[C@@H](O)[C@H](N)[C@H]1O` [Amikacin, amikacin]: in assay [1] (Mycolicibacterium smegmatis), the MIC was 0.78 µg/mL (≈ 1.33 µM). Moreover, the “susceptibility” value in assay [2] (dark condition) is recorded as “susceptible”.

Consider `CCc1cc(C(N)=S)ccn1` [Ethionamide, ethionamide], for which the “susceptibility” value in assay [2] is “susceptible”.

Regarding `NNC(=O)c1ccncc1` [Isoniazid, isoniazid], in assay [2] (dark condition), the “susceptibility” value is “cross-resistance”.

With `CC(=O)NC[C@H]1CN(c2ccc(N3CCOCC3)c(F)c2)C(=O)O1` [linezolid, reference compound], in assay [3], the biofilm eradication efficacy result is on record as “same level of efficacy”.

Consider capreomycin, for which, in assay [1], the “MIC (µg/mL) against M.smegmatis 607™ (wild-type)” value was found to be 3.13 µg/mL. For the same compound, in assay [2] (dark condition), the “susceptibility” value is recorded as “susceptible” and the “MIC (µg/mL) against M.smegmatis 607™ (RB mutant)” value amounted to 3.13 µg/mL.
